Legend:
[1] = target: T1, Fructose-1,6-bisphosphatase 1 (Homo sapiens, UniProt P09467); test: Inhibition of human recombinant FBPase expressed in Escherichia coli BL21(DE3) by phosphoglucose isomerase and glucose-6-phosphate dehydrogenase coupled assay
T1 sequence (P09467 whole entry): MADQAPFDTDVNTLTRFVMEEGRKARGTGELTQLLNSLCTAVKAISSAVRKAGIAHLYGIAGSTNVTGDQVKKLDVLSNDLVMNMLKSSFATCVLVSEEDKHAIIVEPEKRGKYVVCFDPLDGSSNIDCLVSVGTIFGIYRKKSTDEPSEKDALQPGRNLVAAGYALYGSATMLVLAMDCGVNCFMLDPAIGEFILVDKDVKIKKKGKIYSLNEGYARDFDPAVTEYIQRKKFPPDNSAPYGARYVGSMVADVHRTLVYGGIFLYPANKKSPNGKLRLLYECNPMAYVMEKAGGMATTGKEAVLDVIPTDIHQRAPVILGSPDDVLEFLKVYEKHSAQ

[2] = target: T1, Fructose-1,6-bisphosphatase 1; test: Inhibition of FBPase (unknown origin)

Row | IC50 [1] | IC50 [2] | SMILES
1 | 4.06 µM | – | COc1cccc(Nc2cc([N+](=O)[O-])c3[nH]c(C(=O)O)cc3c2)c1
2 | 4.3 µM | – | Cc1cccc(Nc2ccc([N+](=O)[O-])c3[nH]c(C(=O)O)cc23)c1
3 | 3.4 µM | – | O=C(O)c1cc2c(Nc3ccc([N+](=O)[O-])cc3)ccc([N+](=O)[O-])c2[nH]1
4 | > 50 µM | – | O=C(O)c1cc2c(-c3ccc(C(F)(F)F)cc3)ccc([N+](=O)[O-])c2[nH]1
5 | > 50 µM | – | O=C(O)c1cc2c(Nc3cccc(Cl)c3)ccc([N+](=O)[O-])c2[nH]1
6 | > 50 µM | – | O=C(O)c1cc2c(Nc3cccc([N+](=O)[O-])c3)ccc([N+](=O)[O-])c2[nH]1
7 | > 50 µM | – | COc1cc(Nc2ccc([N+](=O)[O-])c3[nH]c(C(=O)O)cc23)cc(OC)c1OC
8 | > 50 µM | – | COc1cccc(-c2ccc([N+](=O)[O-])c3[nH]c(C(=O)O)cc23)c1
9 | > 50 µM | – | O=C(O)c1cc2c(Nc3ccccc3)ccc([N+](=O)[O-])c2[nH]1
10 | > 50 µM | – | COc1ccc(Nc2ccc([N+](=O)[O-])c3[nH]c(C(=O)O)cc23)cc1
11 | 35.6 µM | – | COc1cccc(-c2c(C(=O)O)[nH]c3c([N+](=O)[O-])cccc23)c1
12 | 5.4 µM | – | CC(C)Cc1cc([N+](=O)[O-])c2[nH]c(C(=O)O)cc2c1
13 | 9.7 µM | – | CC(C)Cc1ccc([N+](=O)[O-])c2[nH]c(C(=O)O)cc12
14 | > 50 µM | – | N#Cc1ccc(-c2ccc([N+](=O)[O-])c3[nH]c(C(=O)O)cc23)cc1
15 | > 50 µM | – | O=C(O)c1cc2c(Nc3ccc(Cl)cc3)ccc([N+](=O)[O-])c2[nH]1
16 | > 50 µM | – | Nc1cccc(Nc2ccc([N+](=O)[O-])c3[nH]c(C(=O)O)cc23)c1
17 | > 50 µM | – | COc1ccccc1Nc1ccc([N+](=O)[O-])c2[nH]c(C(=O)O)cc12
18 | 10.3 µM | – | CC(C)Cc1c(C(=O)O)[nH]c2c([N+](=O)[O-])cccc12
19 | > 50 µM | – | O=C(O)c1cc2c(-c3cccc(C(F)(F)F)c3)ccc([N+](=O)[O-])c2[nH]1
20 | > 50 µM | – | CCCN(c1cccc(OC)c1)c1ccc([N+](=O)[O-])c2[nH]c(C(=O)O)cc12
21 | 3.2 µM | – | Nc1ncnc2c1ncn2[C@@H]1O[C@H](COP(=O)(O)O)[C@@H](O)[C@H]1O [ADENOSINE PHOSPHATE]

Row | IC50 [1] | IC50 [2] | SMILES
22 | 7.4 µM | – | CC(=O)Nc1cccc(-c2c(C(=O)O)[nH]c3c([N+](=O)[O-])cccc23)c1
23 | 33.9 µM | – | Cc1ccc(Nc2ccc([N+](=O)[O-])c3[nH]c(C(=O)O)cc23)cc1
24 | 25.9 µM | – | Cc1cccc(-c2ccc([N+](=O)[O-])c3[nH]c(C(=O)O)cc23)c1
25 | > 50 µM | – | N#Cc1cccc(-c2ccc([N+](=O)[O-])c3[nH]c(C(=O)O)cc23)c1
26 | 2 µM | 2.5 µM | O=C(O)CCc1c(C(=O)O)[nH]c2cc(Cl)cc(Cl)c12
27 | > 50 µM | – | Nc1cccc(-c2ccc([N+](=O)[O-])c3[nH]c(C(=O)O)cc23)c1
28 | 18.5 µM | – | CC(=O)Nc1cccc(-c2ccc([N+](=O)[O-])c3[nH]c(C(=O)O)cc23)c1
29 | > 50 µM | – | COc1cccc(N(C)c2ccc([N+](=O)[O-])c3[nH]c(C(=O)O)cc23)c1
30 | 7.7 µM | – | COc1ccc(Nc2ccc([N+](=O)[O-])c3[nH]c(C(=O)O)cc23)cc1OC
31 | > 50 µM | – | CC(=O)Nc1cccc(Nc2ccc([N+](=O)[O-])c3[nH]c(C(=O)O)cc23)c1
32 | 4.5 µM | – | O=C(O)c1[nH]c2c([N+](=O)[O-])cccc2c1-c1cccc(F)c1
33 | 12.2 µM | – | O=C(O)c1cc2c(Nc3ccc(C(F)(F)F)cc3)ccc([N+](=O)[O-])c2[nH]1
34 | > 50 µM | – | O=C(O)c1cc2c(-c3ccccc3)ccc([N+](=O)[O-])c2[nH]1
35 | 3.7 µM | – | CC(=O)Nc1cccc(-c2cc([N+](=O)[O-])c3[nH]c(C(=O)O)cc3c2)c1
36 | 25.6 µM | – | COc1cccc(Nc2ccc([N+](=O)[O-])c3[nH]c(C(=O)O)cc23)c1
37 | > 50 µM | – | O=C(O)c1cc2c(-c3ccc(Cl)cc3)ccc([N+](=O)[O-])c2[nH]1
38 | > 50 µM | – | O=C(O)c1cc2c(-c3cccc(Cl)c3)ccc([N+](=O)[O-])c2[nH]1
39 | 0.99 µM | – | CCc1c(C(=O)O)[nH]c2c([N+](=O)[O-])cc(CC(C)C)cc12
40 | 6.2 µM | – | CCc1c(C(=O)O)[nH]c2c([N+](=O)[O-])cccc12
41 | 29.1 µM | – | O=C(O)c1cc2c(Nc3cccc(C(F)(F)F)c3)ccc([N+](=O)[O-])c2[nH]1
42 | 12.7 µM | – | O=C(O)c1[nH]c2c([N+](=O)[O-])cccc2c1-c1ccccc1

Source: ChEMBL document CHEMBL3124937, “Design, synthesis and biological evaluation of 7-nitro-1H-indole-2-carboxylic acid derivatives as allosteric inhibitors of fructose-1,6-bisphosphatase” (Bioorg Med Chem, 2014)
